From US10393744B2, “Peptides for targeting colorectal cancer, and medical use thereof” (UNIVERSITY OF ULSAN FOUNDATION FOR INDUSTRY COOPERATION, priority 2014, dated 2019)
Entries after “also recorded” stand apart in the source; their conditions may differ.

Tests used:
[1] = tested on: Radio-resistant colorectal cancer tissue of patient (case C65); assay: In vivo/ex vivo imaging and phage elution of Cy5.5-labeled peptide-expressing phages in mouse model transplanted with patient's colorectal cancer tissue (Example 4); design: species or system nude mouse; details: case C65, irradiated population (2 Gy)
Text: Then, the distributed cancer tissue was kept in a specific preservative solution and transferred directly to an animal chamber, so as to maintain a state in which the cancer tissue was not separated from a patient yet. After an NOD/SCID mouse was anesthetized via intraperitoneal injection of anesthetics, the cancer tissue was cut into pieces each having a size of 3×3 mm. Next, each of both flanks of the NOD/SCID mouse was transplanted with a piece of the cut cancer tissues, and sutured. The NOD/SCID mouse was then recovered on a heating pad for about 2 hours (conditions of the preservative solution: HBSS containing 100 IU/ml penicillin, 100 μg/ml streptomycin, 100 μg/ml gentamicin, 2.5 μg/ml amphotericin B, and 5% fetal bovine serum). After completion of the transplantation, the NOD/SCID mouse was raised until tumors were formed. Meanwhile, the formation and growth of tumors were checked at least once a week. When the transplanted cancer tissues grew to a size of at least 500 mm^3, an extraction process was performed thereon. Then, the extracted cancer tissues were each cut into pieces each having a size of 3×3 mm for subculturing. A nude mouse was anesthetized via intraperitoneal injection of anesthetics, and a piece of the cut cancer tissues was transplanted subcutaneously on the right thigh of the nude mouse. A transplantation site was changed from the flank to the thigh so that irradiation can be locally done without affecting other organs during irradiation. That is, a finally used mouse model transplanted with a patient's colorectal cancer tissue in the present invention was a mouse model established in a way that a cancer tissue that underwent subculturing four times was re-transplanted to form a cancer tissue. When the size of the cancer tissue was increased to about 250 mm^3, only the cancer tissue was irradiated with 2 grays (Gy) of radiation. After having recovery time for no longer than 24 hours, in vivo peptide screening was performed. Here, a non-irradiated population, which is a control group, was also subjected to screening in a separate manner.
In detail, regarding in vivo imaging verification, the peptide-expressing phage was amplified, and a process of linking a fluorescent probe (Cy5.5) was performed. In particular, 1 μg/μl of N-hydroxysuccinimide esters of Cy5.5 (Amersham) was added to 1 mL of bicarbonate buffer (pH 8.3) having the phage concentration of 10^12 plaque forming units (pfu), and then, in a condition where a dark environment was maintained, a phage-surface protein was linked to the Cy5.5 fluorescent probe at room temperature for 3 hours. That is, amine groups of the phage-surface protein were chemically linked to N-hydroxysuccinimide esters of the Cy5.5 fluorescent probe via a covalent bond. The peptide-expressing phages to which the Cy5.5 fluorescent probe was linked were each obtained by precipitation with 170 μl of 20% (w/v) PEG 8000/2.5 M NaCl solution and purification. To determine a proportion of the Cy5.5 fluorescent probe linked to each of the finally obtained phage samples, an IVIS spectrum imaging system (Xenogen) was used for measurement, and region of interest (ROI) values were determined using the software program of a corresponding device.
In addition, on the last day of the in vivo imaging, the cancer tissues were each extracted, to thereby obtain ex vivo images thereof.

[2] = tested on: colorectal cancer tissue of radio-resistant case (case C65) and radio-sensitive case (case C87); assay: Crossover in vivo imaging of B5 peptide-expressing phage in 4 populations (Example 5); design: species or system mouse; details: 4 populations (C65 and C87, irradiated and non-irradiated); tail vein injection, images until 7th day; compared with Cy5.5 dye and empty phage
Description: Among the various peptide-expressing phages selected from the above, the in vivo imaging was attempted again for a B5 peptide, which is a peptide sequence screened only from the irradiated population in the radio-resistant case (case C65). At the same time, to confirm the responsiveness in control groups other than the population of interest, a crossover experiment was carried out. In detail, in the presence of differences in irradiation between the radio-sensitive case and the radio-resistant case of Example 1, the in vivo imaging was carried out to determine the targeting of the B5 peptide sequence in 4 populations in total. Here, the irradiated population of case C65 was set as an experimental group while the non-irradiated population of case C65 and all the populations of case C87 were set as control groups. In the same manner as in Example 4, peptide-expressing phages were amplified and a process of linking a Cy5.5 fluorescent probe was carried out. Then, through the tail vein injection in each population, images thereof were observed until the end of the last 7th day. […]

[3] = tested on: radio-resistant colorectal cancer patient case (C65) cancer tissue; assay: Immunohistochemical staining of extracted cancer tissues with anti-M13 antibody (Example 6); format: in vivo, mouse; details: cancer tissues of each population extracted after imaging
Description: To verify histological targeting ability of the B5 peptide sequence verified in Example 5, the imaging of the B5 peptide sequence was obtained. Then, cancer tissues of each population were extracted to prepare paraffin blocks and slices. In detail, (1) the extracted cancer tissues were immersed in a formaldehyde solution at room temperature for 24 hours in terms of for immobilization. Then, following a dehydration process, paraffin was added to the solution through penetration to form paraffin blocks. Afterwards, a microtome was used to manufacture slices having a thickness of 3 μm. To perform real immunohistological staining, (2) following a deparaffinization process performed on the slices, (3) an unmasking process was performed so that structures of various proteins immobilized to the tissue slices were recovered to restore sites where antibodies normally bind. Sequentially, (4) a blocking process was performed using a 5% BSA solution, (5) primary antibodies were bound (wherein the antibodies used herein were anti-mouse M13 IgG recognizing M13 phage capsid proteins), (6) and secondary antibodies were bound while HRP was bound. Afterwards, (7) sites where phages were present were stained using DAB development, (7) the nuclei […] were stained with hematoxylin, and (8) a dehydration process was performed thereon. […]

[4] = tested on: radio-resistant colorectal cancer tissue (radio-resistant case 1, other patient); assay: In vivo imaging of B5 peptide-expressing phage in other patients' colorectal cancer tissue (Example 7); design: species or system mouse; details: other patient's radio-resistant tissue, with and without irradiation
Description: (§1) In detail, by extending the crossover experiment verified in Example 4, radio-sensitive case 1 and radio-resistant case 1 regarding other colorectal cancer tissues of a patient characterized as adenocarcinoma were introduced in addition to the radio-sensitive case and the radio-resistant case of Example 1. In the same manner as in Example 4, the B5 peptide-expressing phages were amplified and a process of linking a Cy5.5 fluorescent probe was carried out. Regarding the confirmation of the targeting ability of the B5 peptide, the in vivo imaging was used for observation in the same manner as in Example 5. […] In detail, the targeting ability of the B5 peptide sequence targeting a factor inducing resistance against radiation during radiation therapy in Example 6 was also verified in other colorectal cancer tissues of a radio-resistant patient, thereby confirming the possibility of the B5 peptide sequence as a sequence that is responsive to cancer microenvironments causing induction of resistivity during radiotherapy on colorectal cancer. However, in the patients having radio-sensitive colorectal cancer, it was clearly confirmed that the B5 peptide sequence, as a peptide sequence showing no targeting ability regardless of irradiation, was a sequence selectively tracing a radio-resistant factor. […]

[5] = tested on: radio-sensitive colorectal cancer tissue (radio-sensitive case 1, other patient); assay: as above; design: species or system mouse; details: other patient's radio-sensitive tissue, with and without irradiation
Description: as §1

TPSFSKI [B5]
in vivo ROI ([1]; Cy5.5 fluorescence total flux standardized to Cy5.5 dye control): 4.07 | pfu/mg (concentration of eluted phages relative to weight of cancer tissue) ([1]; extracted cancer tissue): 209.47 pfu/mg | ex vivo ROI ([1]; extracted cancer tissue, standardized to Cy5.5 dye control): 2.43 | targeting ability by in vivo imaging (crossover experiment) [2]: specific binding of a B5 peptide sequence only to an irradiated population in radio-resistant case; also recorded: only the irradiated population of the radio-resistant case (case C65) has exhibited excellent targeting ability | histological targeting ability (immunohistochemical staining of phage) [3]: excellent targeting ability; also recorded: specifically bound only to the irradiated population in the radio-resistant colorectal cancer patient case (C65) | targeting ability by in vivo imaging [4]: exhibited targeting ability only in the case of irradiation | targeting ability by in vivo imaging [5]: did not show any targeting ability regardless of irradiation
